Patent US7250157B2, “Dermatological compositions and methods” (Applied Genetics Incorporated Dermatics, priority 1996, dated 2007)
Several values for one entry are separate records, joined by “and”; a condition that tells them apart may be missing. Identical values can stand only once.

Key:
[1] = test system: Cloudman S91 mouse melanoma cell line; test: Melanin content of S91 cells after treatment with test compound; assay type: cell-based
Procedure: The Cloudman S91 mouse melanoma cell line was obtained from American Type Culture Collection (ATCC). […] For testing propylene glycol and analogues for induction of melanogenesis, S91 cells were plated at 10^5 cells/35 mm dish in 10% calf serum. […] Cells were cultured for 6 days at 37° C. in 5% CO2 in a humidified incubator. Following this treatment period, cells were examined microscopically and the portion of dedifferentiated and differentiated cells was estimated.
Following this microscopic examination, cells were detached from dishes by trypsin. The time required for detachment by trypsin was recorded as an additional indicator of the phenotypic effects of test compounds. For each treatment, a subsample of cells was counted to determine the effects of treatment compounds on cellular proliferation. The remainder of cells were used for determination of melanin content. […] Absorbance of standards and samples was measured at 475 nm. Melanin was expressed as pg melanin/cell.

[2] = test system: Cloudman S91 mouse melanoma cell line; test: Cell count (proliferation, toxicity) of treated S91 cells; assay type: cell-based; settings: concentrations that induce much higher levels of tyrosinase
Procedure: The Cloudman S91 mouse melanoma cell line was obtained from American Type Culture Collection (ATCC). Cells were cultured in Dulbecco's Modified Eagles Medium (DMEM) containing 10% calf serum, 2 mM L-glutamine, 10 U Penicillin/ml and 10 ug Streptomycin/ml according to a previously published protocol (Eller, et al., Proc. Natl. Acad. Sci. 93:1087-92. 1996). For testing propylene glycol and analogues for induction of melanogenesis, S91 cells were plated at 10^5 cells/35 mm dish in 10% calf serum. One day after plating, media was removed and replaced with media containing 2% calf serum and test compounds (Eller, et al., 1996). Cells were cultured for 6 days at 37° C. in 5% CO2 in a humidified incubator. Following this treatment period, cells were examined microscopically and the portion of dedifferentiated and differentiated cells was estimated. Previous studies have shown that dedifferentiated S91 cells have a rounded, spindly appearance while differentiated S91 cells have a flattened, cuboidal, multipolar and dendritic appearance (Orlow, et al., Exp. Cell Res. 191:209-218, 1990).
Following this microscopic examination, cells were detached from dishes by trypsin. The time required for detachment by trypsin was recorded as an additional indicator of the phenotypic effects of test compounds. For each treatment, a subsample of cells was counted to determine the effects of treatment compounds on cellular proliferation. The remainder of cells were used for determination of melanin content. Melanin was extracted from cells by vortexing for 15 min in 1N NaOH. Standards were prepared by dissolving melanin (Sigma) in 1 N NaOH (Eller, et al., 1996). Absorbance of standards and samples was measured at 475 nm. Melanin was expressed as pg melanin/cell.

[3] = test system: Normal human epidermal melanocytes (NHEMs); test: Melanin induction in normal human epidermal melanocytes; assay type: cell-based
Procedure: Normal human epidermal melanocytes (NHEMs) were examined for induction of melanogenesis using cells and media from Clonetics Corporation (San Diego, Calif.). Cells were cultured exactly as specified by the supplier.

[4] = test system: American short-haired guinea pigs; test: Topical melanogenesis (pigmentation rating) in guinea pigs; assay type: in vivo, guinea pig; parameters: Pigmentation Rating / Pigmentation Rating Background Corrected: scale not given here
Procedure: Compounds were tested for melanogenic activity in vivo by application to American short-haired guinea pigs. Treatment sites were created by removal of fur using Nair® brand depilatory. In the Table, the numbers presented are the relative melanogenesis rating (mean ±SE), and are arranged according to the relative location on the animal, with the head being to the left and the tail being to the right. Propylene glycol (PG=13.6M), 2,3-butanediol (2,3-BD=10.95M), and 1,2-cis-cyclopentanediol (1,2-cs-CPD=10.7M) were applied as full strength solutions. 3,3-dimethyl-1,2-butanediol (3,3-M-1,2-BD) was applied as a 4M solution dissolved in ethanol. Two weeks following cessation of treatments, the degree of pigmentation was subjectively rated according to the following scale:
In order to minimize the effects of dimunition of response from head to tails of animals, all future experiments were done using only treatment spots located towards the tails of animals (c and d in Table 7). Deemed as additionally beneficial, in this area of the animal differences of responsiveness to strong and weak inducers of pigmentation, as deduced from cell culture, were greatest. […] Pigmentation ratings were corrected for background (control treatment spots), normalized to 1M to account for the different amounts of each agent applied, and then normalized to results for 1,2-PG (Table 8). […] It is anticipated that further improvements in formulation will additionally improve responsiveness to 5-NBene-2,2-DM and other compounds in this invention.
In FIG. 5, a, b, c and d indicate treatment spots that transverse the anterior-posterior axis along the backs of guinea pigs.

[5] = test system: Tyrosinase in normal human epidermal melanocytes (NHEM); test: Tyrosinase in NHEM (in situ, cellular, extracellular particulate, media); assay type: cell-based
Procedure: Tyrosinase was measured in normal human epidermal melanocytes (NHEM) using procedures identical to those described for S91 cells (Example 6), […], 1600×g, or 17,300×g for analysis of tyrosinase activity in the extracellular exported melanosomal particulate fraction, and in the resultant supernatant media fraction. In some cases (Table 11), tyrosinase was also measured by an in situ assay wherein radiolabelled tyrosine was added directly to freshly replaced media of NHEM for a period of 24 hrs following a 5 day treatment period (Abdel-Malek, et al., 1992, J. Cell. Physiol. 150:416-425). […] Both 5 mM 5-NBene-2,2-DM and 25 mM 3,3-M-1,2-BD induced more tyrosinase in each of these assays and fractions than did 1,2-PG. IBMX (3-isobutyl-1-methyl-xanthine) provided as a positive control, induced as much tyrosinase as 5 mM 5-NBene-2,2-DM in the in situ assay, but less in cellular, extracellular particulate and media fractions (Table 11).

[6] = test system: tyrosinase activity in S91 mouse melanoma cells; test: Induction of tyrosinase activity in S91 cells; settings: 300 mM PG-1,2; 25 mM 3,3-M-1,2-BD; 50 mM 1,2-cs-CPD; 5 mM 5-NBene-2,2-DM; 0.5 mM 2,3-Pyd; 0.1 mM IBMX; mean ±SE
[7] = No Penetration Enhancer, concentrations as E85
[8] = 5 day treatment, concentrations as E130
[9] = pair of replicates, concentrations as E130

CC(C)(C)C(O)CO (stereo not drawn) [3,3-M-1,2-BD, 3,3-dimethyl-1,2-butanediol]
Concentration Required for ≧2-fold Melanin Induction in S91 Cells [1]: 10 mM
toxicity to S91 cells [2]: nontoxic
Concentration Required for ≧1.5-fold Melanin Induction in NHEMs [3]: 12.5 mM
Pigmentation Rating Normalized to 1,2-PG [4, 7]: 18.1 ± 6.8
Pigmentation Rating Normalized to 1M [4, 7]: 0.272 ± 0.102
Pigmentation Rating Background Corrected ([4]; No Penetration Enhancer, corrected for Nair control, concentrations as E85): 1.09 ± 0.41
Pigmentation Rating ([4]; No Penetration Enhancer, sites c and d, 13.61M 1,2-PG, 11.0M 2,3-M-2,3-BD, 11.3M 2-M-1,3-PG, 8.7M 1,2-cs-CPD, 4.0M 3,3-M-1,2-BD): 1.17 ± 0.44
greater melanogenesis than PG applied at similar body locations ([4]; guinea pig, 5 days): 4.5 fold
relative melanogenesis rating (mean ±SE), scale 0-4 ([4]; site c, 25 μl twice per day for 5 days, rated two weeks after, full strength, 3,3-M-1,2-BD 4M in ethanol): 1.16 ± 0.66^2
Tyrosinase In Situ ([5]; 5 day treatment, 300 mM 1,2-PG, 25 mM 3,3-M-1,2-BD, 5 mM 5-NBene-2,2-DM, 0.1 mM IBMX): 20.5 dpm/hr/10^3 Cells and 21.0 dpm/hr/10^3 Cells
Tyrosinase 200 g Partic [5, 8]: 1646 dpm/hr/10^3 Cells and 2226 dpm/hr/10^3 Cells
Tyrosinase Cellular [5, 8]: 11728 dpm/hr/10^3 Cells and 11730 dpm/hr/10^3 Cells
Tyrosinase 17300 g Partic ([5]; Post 200 X g, 5 day treatment, concentrations as E130): 536 dpm/hr/10^3 Cells and 425 dpm/hr/10^3 Cells
Tyrosinase Media ([5]; Post 17300 X g, 5 day treatment, concentrations as E130): 5495 dpm/hr/10^3 Cells and 3056 dpm/hr/10^3 Cells
Tyrosinase 200 g Partic, relative to controls (in parentheses) [5, 9]: (5.64X)
Tyrosinase 17300 g Partic, relative to controls (in parentheses) [5, 9]: (4.20X)
Tyrosinase Cellular, relative to controls (in parentheses) [5, 9]: (1.15X)
Tyrosinase In Situ, relative to controls (in parentheses) [5, 9]: (1.31X)
Tyrosinase Media, relative to controls (in parentheses) [5, 9]: (2.75X)
Tyrosinase dpm/hr 10^3 Cells [6]: 1211 ± 38 dpm/hr/10^3 Cells
Tyrosinase dpm/hr ug Protein [6]: 1746 ± 220 dpm/hr/ug Protein
